Test [1] deals with E3 ubiquitin-protein ligase SMURF2 (Homo sapiens, UniProt Q9HAU4). Briefly: Inhibition of SMURF2 (unknown origin) in presence of E1/E2/Ub mix measured after 45 mins by europium-labeled streptavidin based TR-FRET assay.
The target in test [2] is E3 ubiquitin-protein ligase SMURF1 (Homo sapiens, UniProt Q9HCE7). Briefly: Inhibition of SMURF1 (unknown origin) in presence of E1/E2/Ub mix measured after 45 mins by europium-labeled streptavidin based TR-FRET assay.
Chain of E3 ubiquitin-protein ligase SMURF1 (Q9HCE7 whole entry): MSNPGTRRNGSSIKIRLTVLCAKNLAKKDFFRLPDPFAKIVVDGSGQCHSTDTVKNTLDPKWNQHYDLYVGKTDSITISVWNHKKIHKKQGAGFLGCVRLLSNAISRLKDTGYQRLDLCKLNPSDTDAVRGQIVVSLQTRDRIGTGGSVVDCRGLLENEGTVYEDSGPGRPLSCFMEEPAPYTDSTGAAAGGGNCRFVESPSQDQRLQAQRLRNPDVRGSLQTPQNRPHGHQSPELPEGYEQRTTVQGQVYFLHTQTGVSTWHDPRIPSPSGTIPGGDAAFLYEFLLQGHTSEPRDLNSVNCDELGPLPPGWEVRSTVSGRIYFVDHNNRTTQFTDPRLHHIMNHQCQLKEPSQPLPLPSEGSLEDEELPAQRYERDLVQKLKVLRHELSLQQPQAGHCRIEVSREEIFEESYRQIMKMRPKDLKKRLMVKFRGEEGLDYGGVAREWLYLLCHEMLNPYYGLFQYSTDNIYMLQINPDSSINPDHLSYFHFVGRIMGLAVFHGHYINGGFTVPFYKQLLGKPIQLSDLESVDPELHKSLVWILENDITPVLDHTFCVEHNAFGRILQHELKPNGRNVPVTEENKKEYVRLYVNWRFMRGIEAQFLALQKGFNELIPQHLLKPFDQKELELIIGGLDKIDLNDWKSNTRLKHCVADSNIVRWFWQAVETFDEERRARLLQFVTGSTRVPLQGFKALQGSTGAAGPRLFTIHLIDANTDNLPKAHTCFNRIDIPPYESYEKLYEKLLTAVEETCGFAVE

Chain of E3 ubiquitin-protein ligase SMURF2 (Q9HAU4 whole entry): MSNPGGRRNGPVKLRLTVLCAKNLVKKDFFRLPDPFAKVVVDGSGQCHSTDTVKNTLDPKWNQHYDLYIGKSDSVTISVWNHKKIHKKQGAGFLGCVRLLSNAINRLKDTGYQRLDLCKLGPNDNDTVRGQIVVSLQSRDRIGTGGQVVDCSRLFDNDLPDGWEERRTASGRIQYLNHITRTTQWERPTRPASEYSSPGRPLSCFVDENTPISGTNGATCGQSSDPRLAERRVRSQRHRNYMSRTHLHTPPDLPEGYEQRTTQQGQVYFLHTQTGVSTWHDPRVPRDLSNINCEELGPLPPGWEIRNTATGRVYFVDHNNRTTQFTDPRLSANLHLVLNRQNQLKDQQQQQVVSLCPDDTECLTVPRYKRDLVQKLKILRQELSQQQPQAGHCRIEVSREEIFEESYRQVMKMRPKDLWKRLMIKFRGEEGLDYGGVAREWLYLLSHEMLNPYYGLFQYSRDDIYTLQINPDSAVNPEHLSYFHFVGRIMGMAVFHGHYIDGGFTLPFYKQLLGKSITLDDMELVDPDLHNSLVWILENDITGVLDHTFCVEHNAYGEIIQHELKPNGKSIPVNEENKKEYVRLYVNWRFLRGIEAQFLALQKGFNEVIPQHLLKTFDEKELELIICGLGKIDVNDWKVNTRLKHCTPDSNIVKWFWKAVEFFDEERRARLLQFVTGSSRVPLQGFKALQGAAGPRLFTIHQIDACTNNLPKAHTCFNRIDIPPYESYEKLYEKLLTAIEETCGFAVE

Take `COc1ccc2c(c1)CCCc1c(C(=O)Nc3c(C)n(C)n(Cc4ccc(F)cc4)c3=O)noc1-2`: in test [1], the IC50 was determined as 20 µM. Same read-out and setting: the same measure for `Cc1c(NC(=O)c2noc3c2CCCc2cc(OC(F)(F)F)ccc2-3)c(=O)n(Cc2ccc(F)cc2)n1C`: 20 µM. Regarding `Cc1c(NC(=O)c2noc3c2CCCc2cc(CC(C)C)ccc2-3)c(=O)n(-c2ccccc2Cl)n1C`, the 50% inhibitory concentration (IC50) in test [2] amounted to 0.0225 µM; in test [1] it was 0.74 µM. With `Cc1c(NC(=O)c2noc3c2CCCc2cc(OC(F)(F)F)ccc2-3)c(=O)n(Cc2ccccc2F)n1C`, the IC50 in test [1] was 20 µM.

Source of the values: ChEMBL document CHEMBL4418281, “Carboxamide inhibitors” (2017).
